According to US20240025862A1, “SUBSTITUTED N-PHENYLURACILS AND SALTS THEREOF, AND USE THEREOF AS HERBICIDAL ACTIVE SUBSTANCES” (Bayer Aktiengesellschaft, priority 2020, published 2024):
Like-named read-outs stand apart in the source and are kept apart here.

Legend:
Assay type in all cases: in vivo
[1] = system: Abutilon theophrasti (ABUTH); assay: Post-emergence herbicidal action, greenhouse pot test; conditions: Abutilon theophrasti, 504 h; for pest or weed control at 1.25 g/ha: read-out: Post-emergence action at 1.25 g/ha against ABUTH in %; for pest or weed control at 5 g/ha: read-out: Post-emergence action at 5 g/ha against ABUTH in %; for pest or weed control at 20 g/ha: read-out: Post-emergence action at 20 g/ha against ABUTH in %
Outline: (§1)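 Activity was scored by eye about 3 weeks after treatment against untreated plants, where 100% means dead plants and 0% means no difference. Plants at the one-leaf stage received a foliar spray of WP or EC formulations in water plus 0.5% additive (600 l/ha, up to 20 g/ha). Plants were grown in sandy loam pots in a greenhouse for 2–3 weeks before spraying.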

[2] = system: Amaranthus retroflexus (AMARE); assay: as above; conditions: Amaranthus retroflexus, 504 h; for pest or weed control at 1.25 g/ha: read-out: Post-emergence action at 1.25 g/ha against AMARE in %; for pest or weed control at 5 g/ha: read-out: Post-emergence action at 5 g/ha against AMARE in %; for pest or weed control at 20 g/ha: read-out: Post-emergence action at 20 g/ha against AMARE in %
Outline: as §1

[3] = system: Avena fatua (AVEFA); assay: as above; conditions: Avena fatua, 504 h, read-out: Post-emergence action at 20 g/ha against AVEFA in %
Outline: as §1

[4] = system: Hordeum murinum (HORMU); assay: as above; conditions: 20 g/ha, rated visually after about 3 weeks vs untreated controls, 100% = plants have died
Outline: as §1

[5] = system: Pharbitis purpurea (PHBPU); assay: as above; conditions: Ipomoea purpurea, 504 h, read-out: Post-emergence action against PHBPU in %
Outline: as §1

[6] = system: Polygonum convolvulus (POLCO); assay: as above; conditions: Fallopia convolvulus, 504 h, read-out: Post-emergence action against POLCO in %
Outline: as §1

[7] = system: Stellaria media (STEME); assay: as above
Outline: as §1

[8] = system: Veronica persica (VERPE); assay: as above; conditions: Veronica persica, 504 h, read-out: Post-emergence action against VERPE
Outline: as §1

[9] = system: Viola tricolor (VIOTR); assay: as above; conditions: Viola tricolor, 504 h, read-out: Post-emergence action against VIOTR
Outline: as §1

[10] = system: Alopecurus myosuroides (ALOMY); assay: Post-emergence herbicidal action, greenhouse pot test (also comparative test C); conditions: for pest or weed control at 20 g/ha: read-out: Post-emergence action at 20 g/ha against ALOMY in %
Outline: (§2)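 Green parts of one-leaf-stage plants are sprayed at 600 l/ha with formulated compound plus 0.5% additive, then kept under optimum greenhouse conditions for about 3 weeks. Damage is scored visually, where 100% means dead plants and 0% means no difference from controls.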

[11] = system: Echinochloa crus-galli (ECHCG); assay: as above
Outline: as §2

[12] = system: Matricaria inodora (MATIN); assay: as above; conditions: Tripleurospermum inodorum, 504 h, read-out: Post-emergence action against MATIN in %
Outline: as §2

[13] = system: Setaria viridis (SETVI); assay: as above; conditions: Setaria viridis, 504 h; for pest or weed control at 20 g/ha: read-out: Post-emergence action against SETVI; for pest or weed control at 1.25 g/ha / pest or weed control at 5 g/ha: read-out: Post-emergence action against SETVI in %
Outline: as §2

[14] = system: Glycine max (GLXMA); assay: Post-emergence crop plant compatibility, greenhouse pot test
Outline: (§3)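 Compatibility was scored as visual % effect against untreated controls about 3 weeks after spraying green plant parts at the one-leaf stage. Formulations (WP/EC) were applied in aqueous form with 0.5% additive, 600 l/ha, to greenhouse-grown pot plants.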

[15] = system: Triticum aestivum (TRZAS); assay: as above; conditions: vs untreated controls
Outline: as §3

[16] = system: Zea mays (ZEAMX); assay: as above; conditions: 1.25 g/ha, vs untreated controls
Outline: as §3

[17] = system: Oryza sativa (ORYSA); assay: Post-emergence crop plant compatibility, greenhouse pot test (also comparative test C); conditions: vs untreated controls
Outline: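 Visual damage versus untreated plants (0% = like control, 100% = plants died) was scored about 3 weeks after a post-emergence spray in greenhouse pots. Treatment: one-leaf stage, WP or EC in water at 600 l/ha with 0.5% additive; a/b/c mark different dosages on the same crop.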

[18] = system: Lolium rigidum (LOLRI); assay: Post-emergence herbicidal action, greenhouse pot test
Outline: as §1

[19] = system: Brassica napus (BRSNW); assay: Post-emergence crop plant compatibility, greenhouse pot test; conditions: for Post-emergence action against BRSNW (crop plant compatibility): vs untreated controls
Outline: as §3

[20] = 1.25 g/ha, rated visually after about 3 weeks vs untreated controls, 100% = plants have died
[21] = 5 g/ha, rated visually after about 3 weeks vs untreated controls, 100% = plants have died
[22] = 20 g/ha, rated visually after about 3 weeks vs untreated controls, 100% = plants have died

**Q.** What does the source list for COCCOC(=O)COc1ccccc1Sc1cc(-n2c(=O)cc(C(F)(F)F)n(C)c2=O)c(F)cc1Cl [I.1-1, 2-Methoxyethyl [2-({2-chloro-4-fluoro-5-[3-methyl-2,6-dioxo-4-(trifluoromethyl)-3,6-dihydropyrimidin-1(2H)-yl]phenyl}sulfanyl)phenoxy]acetate]?
**A.** pest or weed control at 1.25 g/ha [1]: 100%; pest or weed control at 5 g/ha [1]: 100%; pest or weed control at 20 g/ha [1]: 100%; pest or weed control at 1.25 g/ha [2]: 90%; pest or weed control at 5 g/ha [2]: 100%; pest or weed control at 20 g/ha [2]: 100%; pest or weed control at 20 g/ha [3]: 80%; Post-emergence action at 20 g/ha against HORMU in % [4]: 100%; pest or weed control at 1.25 g/ha [5]: 100%; pest or weed control at 5 g/ha [5]: 100%; pest or weed control at 20 g/ha [5]: 100%; pest or weed control at 5 g/ha [6]: 100%; pest or weed control at 20 g/ha [6]: 100%; Post-emergence action against STEME ([7]; 1.25 g/ha): 80%; Post-emergence action against STEME ([7]; 5 g/ha): 100%; Post-emergence action against STEME ([7]; 20 g/ha): 100%; pest or weed control at 1.25 g/ha [8]: 80%; pest or weed control at 5 g/ha [8]: 100%; pest or weed control at 20 g/ha [8]: 100%; pest or weed control at 1.25 g/ha [9]: 100%; pest or weed control at 5 g/ha [9]: 100%; pest or weed control at 20 g/ha [9]: 100%; pest or weed control at 20 g/ha ([10]; Alopecurus myosuroides, 504 h): 80%; pest or weed control at 20 g/ha ([11]; Echinochloa crus-galli, 504 h, read-out: Post-emergence action against ECHCG in %): 80%; pest or weed control at 5 g/ha [12]: 100%; pest or weed control at 20 g/ha [12]: 100%; pest or weed control at 20 g/ha [13]: 100%; pest or weed control at 1.25 g/ha [13]: 100%; pest or weed control at 5 g/ha [13]: 100%; Post-emergence action against GLXMA in % ([14]; 1.25 g/ha): 0%; Post-emergence action against GLXMA in % ([14]; 5 g/ha): 20%; Post-emergence action against TRZAS (crop plant compatibility) ([15]; 1.25 g/ha): 20%; Post-emergence action against ZEAMX (crop plant compatibility) [16]: 20%; Post-emergence action against ORYSA (crop plant compatibility) ([17]; 1.25 g/ha): 10%; Post-emergence action against ORYSA (crop plant compatibility) ([17]; 5 g/ha): 10%

**Q.** What does the source list for Cn1c(C(F)(F)F)cc(=O)n(-c2cc(Oc3ccccc3OCC(=O)OCc3ccccn3)c(Cl)cc2F)c1=O [I.7-276, Pyridin-2-ylmethyl (2-{2-chloro-4-fluoro-5-[3-methyl-2,6-dioxo-4-(trifluoromethyl)-3,6-dihydropyrimidin-1(2H)-yl]phenoxy}phenoxy)acetate]?
**A.** pest or weed control at 1.25 g/ha [1, 20]: 100%; pest or weed control at 5 g/ha [1, 21]: 100%; pest or weed control at 20 g/ha [1, 22]: 100%; pest or weed control at 1.25 g/ha [2, 20]: 100%; pest or weed control at 5 g/ha [2, 21]: 100%; pest or weed control at 20 g/ha [2, 22]: 100%; pest or weed control at 20 g/ha [3, 22]: 90%; Post-emergence action at 5 g/ha against LOLRI in % [18, 21]: 80%; pest or weed control at 20 g/ha ([18]; Lolium rigidum, 504 h, dosage 20 g/ha, read-out: Post-emergence action against LOLRI in %): 100%; pest or weed control at 1.25 g/ha ([5]; dosage 1.25 g/ha): 100%; pest or weed control at 5 g/ha ([5]; dosage 5 g/ha): 100%; pest or weed control at 20 g/ha ([5]; dosage 20 g/ha): 100%; pest or weed control at 1.25 g/ha ([8]; 1.25 g/ha): 100%; pest or weed control at 5 g/ha ([8]; 5 g/ha): 100%; pest or weed control at 20 g/ha ([8]; 20 g/ha): 100%; pest or weed control at 1.25 g/ha ([9]; 1.25 g/ha): 100%; pest or weed control at 5 g/ha ([9]; 5 g/ha): 100%; pest or weed control at 20 g/ha ([9]; 20 g/ha): 100%; Post-emergence action at 1.25 g/ha against ALOMY in % [10, 20]: 90%; pest or weed control at 5 g/ha ([10]; Alopecurus myosuroides, 504 h, 5 g/ha, rated visually after about 3 weeks vs untreated controls, 100% = plants have died, read-out: Post-emergence action at 5 g/ha against ALOMY in %): 100%; pest or weed control at 20 g/ha ([10]; Alopecurus myosuroides, 504 h, 20 g/ha, rated visually after about 3 weeks vs untreated controls, 100% = plants have died): 100%; Post-emergence action at 1.25 g/ha against ECHCG in % [11, 20]: 90%; pest or weed control at 5 g/ha ([11]; Echinochloa crus-galli, 504 h, dosage 5 g/ha, read-out: Post-emergence action against ECHCG in %): 100%; pest or weed control at 20 g/ha ([11]; Echinochloa crus-galli, 504 h, dosage 20 g/ha, read-out: Post-emergence action against ECHCG in %): 100%; pest or weed control at 1.25 g/ha ([12]; dosage 1.25 g/ha): 100%; pest or weed control at 5 g/ha ([12]; dosage 5 g/ha): 100%; pest or weed control at 20 g/ha ([12]; dosage 20 g/ha): 100%; pest or weed control at 20 g/ha ([13]; 20 g/ha): 100%; pest or weed control at 1.25 g/ha ([13]; dosage 1.25 g/ha): 100%; pest or weed control at 5 g/ha ([13]; dosage 5 g/ha): 100%; Post-emergence action against BRSNW (crop plant compatibility) ([19]; 1.25 g/ha): 20%; Post-emergence action at 5 g/ha against BRSNW in % ([19]; 5 g/ha, crop plant compatibility, observed effects on crop plant in comparison to untreated controls): 20%; Post-emergence action against BRSNW (crop plant compatibility) ([19]; 20 g/ha): 20%; Post-emergence action against TRZAS (crop plant compatibility) ([15]; 1.25 g/ha): 20%; Post-emergence action against TRZAS (crop plant compatibility) ([15]; 5 g/ha): 20%; Post-emergence action against ORYSA (crop plant compatibility) ([17]; 1.25 g/ha): 0%
